Data published in paper PMC6332183, “α-Glucosidase Inhibitors from Vauquelinia corymbosa” (Molecules, 2015).
Where two headings read alike, the source gives them in different places. Marks after values point to notes of the source that are not given here.

Columns and labels:
yeast α-glucosidase [1] = biological target: T1, yeast α-glucosidase (Saccharomyces cerevisiae, UniProt P53341); assay: yeast α-glucosidase inhibitory assay (pNPG, spectrophotocolorimetric); type: biochemical
Method: (§1) Aliquots of 0–10 μL of testing materials (triplicated) were incubated for 10 min with 20 μL of an enzyme solution of yeast α-glucosidase (Sigma-Aldrich, 0.4 units/mL in PBS) or mammalian α-glucosidase (Sigma-Aldrich, 40 mg). The mammalian enzyme was separated from rat intestinal acetone powder, which was hand homogenized using 1 mL of ice-cold PBS. After sonicating during ten min, the content was centrifuged at 6400 rpm for 10 min (Microfuge Qualitron, Inc., Albany, NY, USA). The supernatant was recovered and used for the in vitro assay.
(§2) After incubation with the enzymes 10 μL of p-nitrophenyl α-D-glucopyranoside (pNPG 5 mM and 10 mM in PSB, respectively) were added and then incubated for 20 min at 37 °C. Then, absorbances were determined in a BIO-RAD microplate reader model 680 at 405 nm.

[2] = test system: rat small intestinal α-glucosidases; assay: rat small intestinal α-glucosidase inhibitory assay (pNPG); type: biochemical
Method: as §1, §2

yeast α-glucosidase [3] = biological target: T1, yeast α-glucosidase; assay: kinetic analysis (Lineweaver-Burk) with yeast α-glucosidase; type: biochemical; conditions: Lineweaver-Burk plot
Method: (§3) The mode of inhibition was determined by the Lineweaver-Burk plots. The inhibition constants were calculated using the following equation [36]: (2) v=Vmax×S/Km(1+[I]/Ki)+S(1+[I]/αKi) where v is the initial velocity in absence and presence of inhibitor; S and I are concentration of substrate and inhibitor, respectively; Vmax is the maximum velocity; Km is the Michaellis-Menten constant; Ki is the competitive inhibition constant and αKi is the uncompetitive inhibition constant. The kinetic data was analyzed using a computer program for nonlinear regressions (Graph Pad Prism 5.0, GraphPad Software, Inc., La Jolla, CA, USA).

[4] = test system: small intestinal rat α-glucosidase; assay: kinetic analysis (Lineweaver-Burk) with small intestinal rat α-glucosidase
Method: as §3

[5] = test system: rat small intestinal α-glucosidases; parameters: method as in doi:10.1016/j.fshw.2014.11.003; conditions: values taken from reference; ref [22]; cited from earlier work
[6] = mean ± SD of triplicate experiments, read-out: Rat Small Intestinal IC50

T1 sequence (P53341 whole entry): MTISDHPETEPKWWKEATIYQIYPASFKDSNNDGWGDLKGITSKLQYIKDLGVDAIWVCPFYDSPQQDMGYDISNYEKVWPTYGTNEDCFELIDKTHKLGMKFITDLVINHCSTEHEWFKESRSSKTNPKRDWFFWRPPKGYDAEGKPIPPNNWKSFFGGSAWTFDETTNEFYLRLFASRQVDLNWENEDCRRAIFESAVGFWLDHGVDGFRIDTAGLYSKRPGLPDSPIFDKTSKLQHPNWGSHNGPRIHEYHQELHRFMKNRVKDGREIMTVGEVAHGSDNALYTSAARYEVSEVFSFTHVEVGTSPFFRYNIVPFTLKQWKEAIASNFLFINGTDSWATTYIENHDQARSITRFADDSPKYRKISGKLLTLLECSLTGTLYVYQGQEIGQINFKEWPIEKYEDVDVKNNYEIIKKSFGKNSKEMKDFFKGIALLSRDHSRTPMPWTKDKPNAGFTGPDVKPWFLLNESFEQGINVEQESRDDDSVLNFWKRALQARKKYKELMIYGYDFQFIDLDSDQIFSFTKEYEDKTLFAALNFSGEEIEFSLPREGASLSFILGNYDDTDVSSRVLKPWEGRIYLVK

Compound | Rat Small Intestinal Maximum Inhibition (%) [2] [%] | IC50 [2, 6] [µM] | Rat Small Intestinal % Inhibition obtained with 10.0 mM of inhibitor [2] | other results
C[C@H]1O[C@H](O[C@H]2[C@H](O)[C@@H](O)[C@@H](O[C@H]3[C@H](O)[C@@H](O)C(O)O[C@@H]3CO)O[C@@H]2CO)[C@H](O)[C@@H](O)[C@@H]1N[C@H]1C=C(CO)[C@@H](O)[C@H](O)[C@H]1O (stereo partly shown) [Acarbose, acarbose, reference compound] | 80.2 | 100 ± 3 | – | Yeast Maximum Inhibition (%) (yeast α-glucosidase [1]): 89.7%
N#C[C@H](O[C@@H]1O[C@H](CO)[C@@H](O)[C@H](O)[C@H]1O)c1ccccc1 [Compound 1, prunasin] | – | – | 44.5 ^d % | –
Oc1cc(O)c2c(c1)O[C@@H](c1ccc(O)c(O)c1)[C@@H](O)C2 [Compound 2, (−)-epi-catechin] | – | – | 15.2 ^d % | –
O=c1c(O[C@@H]2O[C@H](CO)[C@H](O)[C@H](O)[C@H]2O)c(-c2ccc(O)c(O)c2)oc2cc(O)cc(O)c12 [Compound 3, hyperoside] | 65.1 | 1980 ± 150 | – | –
O=c1c(O[C@@H]2O[C@H](CO)[C@@H](O)[C@H](O)[C@H]2O)c(-c2ccc(O)c(O)c2)oc2cc(O)cc(O)c12 [Compound 4, isoquercetin] | 71.0 | 1630 ± 110 | – | –
O=C(OC[C@H]1O[C@@H](Oc2c(-c3ccc(O)c(O)c3)oc3cc(O)cc(O)c3c2=O)[C@H](O)[C@@H](O)[C@H]1O)c1ccccc1 [Compound 6, quercetin-3-O-(6′′-benzoyl)-β-galactoside] | 75.8 | 430 ± 30 | – | IC50 ([2]; read-out: IC50, mammalian enzyme): 437 µM; mode of inhibition, yeast α-glucosidase (yeast α-glucosidase [3]): mixed-type inhibitor; mode of inhibition, rat α-glucosidase ([4]; Lineweaver-Burk plot): mixed-type inhibitor; Ki ([4]; read-out: inhibition constant Ki, rat enzyme (abstract), mixed-type inhibition): 212 µM
CC(=O)c1ccc(O[C@@H]2O[C@H](CO)[C@@H](O)[C@H](O)[C@H]2O)cc1 [Compound 7, picein] | 52.6 | 10700 ± 960 | – | –
COc1ccc(O[C@@H]2O[C@H](CO)[C@@H](O)[C@H](O)[C@H]2O)cc1 [Compound 8, methylarbutin] | – | – | 39.3 ^d % | –
O=c1c(O)c(-c2ccc(O)c(O)c2)oc2cc(O)cc(O)c12 [Compound 9, quercetin] | – | – | – | IC50 [5]: 216 µM
quercitrin [Compound 5] | 59.7 | 3340 ± 380 | – | Yeast Maximum Inhibition (%) (yeast α-glucosidase [1]): 45.0%
